Like-named read-outs stand apart in the source and are kept apart here.
How the values were obtained:
[1] = Bioelution in simulated gastric fluid; conditions: for Bioelution of Co in gastric fluid (% release), 2 h / Bioelution of Co in gastric fluid / cobalt release (µg Co/g sample), 2 h: simulated gastric fluid pH 1.5, 2 h, 37°C
[2] = system: rats; assay: Acute oral toxicity testing; format: in vivo, rat
[3] = Plasma toxicokinetic study; format: in vivo, rat; conditions: for C max / K el / t 1/2 / Bioavailability (relative): 300 mg test item/kg PO; for Bioavailability (relative): vs CoCl2 IV; for Bioavailability calculated from AUC as % of CoCl2 IV AUC, average of m + f: relative bioavailability: oral, average of males and females
[4] = Bioelution in simulated intestinal fluid; conditions: for Bioelution of Co in intestinal fluid (% release) / Bioelution of Co in intestinal fluid / cobalt release (µg Co/g sample): simulated intestinal fluid pH 7.4, 24 h
[5] = system: rats; conditions: oral, ref Domingo et al. (1984), cited from earlier work
[6] = system: Crl:CD(SD) rats; assay: Combined RDT study with reproduction/developmental toxicity screening test; format: in vivo, rat; conditions: oral gavage
[7] = listed as Co Sulfate Heptahydrate

Compound: [Li+].[O]=[Co][O-] [CoLiO2, Cobalt lithium oxide]
- Bioelution of Co in gastric fluid (% release), 2 h [1]: 5.9 % release
- Acute LD50 (mg Co/kg bw) ([2]; OECD 401 or 425): > 3011 mg Co/kg bw
- Acute LD50 (mg substance/kg bw) ([2]; OECD 401 or 425, listed as Co Lithium Dioxide): > 5000 mg substance/kg bw
- C max ([3]; females): 2.88 ng/mL
- K el ([3]; females): 0.0568 h⁻¹
- t 1/2 ([3]; females): 12.20 h
- Bioavailability (relative) ([3]; females): 0.25 (relative) %
- Bioavailability (relative) ([3]; females, listed as Co lithium dioxide): 0.25%
- C max ([3]; males): 3.45 ng/mL
- K el ([3]; males): 0.0535 h⁻¹
- t 1/2 ([3]; males): 13.0 h
- Bioavailability (relative) ([3]; males): 0.30 (relative) %
- Bioavailability (relative) ([3]; males, listed as Co lithium dioxide): 0.3%
- Bioavailability calculated from AUC as % of CoCl2 IV AUC, average of m + f: relative bioavailability ([3]; rats): Relative bioavailability 0.28%
- Bioelution of Co in intestinal fluid (% release) [4]: 0.02 (24 h) % release
- Bioelution of Co in intestinal fluid / cobalt release (µg Co/g sample) ([4]; listed as Co Lithium Dioxide): 134 (24 h) µg Co/g sample

Compound: [O]=[Co][OH] [CoOOH, Cobalt oxyhydroxide]
- Bioelution of Co in gastric fluid (% release), 2 h [1]: 0.85 % release
- Bioelution of Co in gastric fluid / cobalt release (µg Co/g sample), 2 h ([1]; listed as Co Oxide Hydroxide): 4460 µg Co/g sample
- Bioelution of Co in intestinal fluid (% release) [4]: 0.06 (24 h) % release
- Bioelution of Co in intestinal fluid / cobalt release (µg Co/g sample) ([4]; listed as Co Oxide Hydroxide): 370 (24 h) µg Co/g sample

Compound: O.O.O.O.O.O.O.O=S(=O)([O-])[O-].[Co+2] [CoSO4, Cobalt sulfate heptahydrate]
- Acute LD50 (mg Co/kg bw) [5]: 65 mg Co/kg bw
- Acute LD50 (mg substance/kg bw) [5]: below 1000 mg substance/kg bw
- Acute LD50 (mg substance/kg bw) [5, 7]: 310 [Domingo et al. (1984)] mg substance/kg bw
- Bioelution of Co in gastric fluid (% release), 2 h [1]: 99.7 % release
- Bioelution of Co in intestinal fluid (% release) [4]: 64 (24 h) % release
- Bioelution of Co in intestinal fluid / cobalt release (µg Co/g sample) [4, 7]: 139 000 (24 h) µg Co/g sample

Compound: Cobalt sulfide [CoS]
- solubility in gastric fluid ([1]; simulated gastric fluid pH 1.5): poorly soluble
- Bioelution of Co in gastric fluid (% release), 2 h [1]: 0.58 % release
- Bioelution of Co in gastric fluid / cobalt release (µg Co/g sample), 2 h ([1]; listed as Co Sulfide): 3820 µg Co/g sample
- Acute LD50 (mg Co/kg bw) ([2]; OECD 401 or 425): > 7124 mg Co/kg bw
- Acute LD50 (mg substance/kg bw) ([2]; OECD 401 or 425): exceeding 11 000 mg substance/kg bw
- Acute LD50 (mg substance/kg bw) ([2]; OECD 401 or 425, listed as Co Sulfide): > 11 000 mg substance/kg bw
- premature deaths ([6]; all doses): None of the exposed animals died prematurely
- NOAEL (F0 generation) ([6]; rats): 648 mg Co/kg bw/day
- NOAEL (F1 generation) ([6]; rats): > 648 mg Co/kg bw/day
- NOAEL (reproductive toxicity) ([6]; rats): > 648 mg Co/kg bw/day
- C max ([3]; females): 2.01 ng/mL
- K el ([3]; females): 0.0464 h⁻¹
- t 1/2 ([3]; females): 14.9 h
- Bioavailability (relative) ([3]; females): 0.09 (relative) %
- C max ([3]; males): 2.01 ng/mL
- K el ([3]; males): 0.0413 h⁻¹
- t 1/2 ([3]; males): 16.8 h
- Bioavailability (relative) ([3]; males): 0.08 (relative) %
- Bioavailability calculated from AUC as % of CoCl2 IV AUC, average of m + f: relative bioavailability ([3]; rats): Relative bioavailability 0.08%
- oral bioavailability ([3]; single oral bolus, rats, males and females not distinguished): below 0.1%
- solubility in intestinal fluid ([4]; simulated intestinal fluid pH 7.4): poorly soluble
- Bioelution of Co in intestinal fluid (% release) [4]: 0.33 (24 h) % release
- Bioelution of Co in intestinal fluid / cobalt release (µg Co/g sample) ([4]; listed as Co Sulfide): 2180 (24 h) µg Co/g sample

Source: paper PMC7098370 (Toxicological Sciences, 2020)
